Literature values, collected in US5026825A, “Intranasal calcitonin formulations” (Rhone-Poulenc Rorer Pharmaceuticals Inc., priority 1988, dated 1991).
Ends that are not written are not given here.

Conditions: calcitonin used in Example 6; USP 4,391,747

Substance | potency
Des asparagine-3-Calcitonins | 4,300 MRC units/mg

Same assay, conditions: calcitonins used in Examples 7-10; from cited US patents

Substance | potency
1A-endo-glycine-calcitonin | 4,650 IU/mg
D-Arginine^24 Calcitonins | 5,000 IU/mg
Glycine^8 -D-Arginine^24 Calcitonins | 3,500 IU/mg
[16-Alanine] Calcitonins [16-alanine calcitonin] | 6,200 IU/mg

Same assay, conditions: in vivo

Substance | potency (level of hypocalcemic activity)
beef calcitonin: natural calcitonin of beef (bovine) (CSNLSTCVLSAYWKDLNNYHRFSGMGFGPETP; ends and bridges not checked; cysteine pairing not given here; UniProt P01260 1-32, looked up) | 100 to 200 MRC U/mg peptide
chicken calcitonin (CASLSTCVLGKLSQELHKLQTYPRTDVGAGTP; ends and bridges not checked; cysteine pairing not given here; UniProt P07660 82-113, looked up) [natural calcitonin of chicken] | 4,000 to 6,000 MCR (Medical Research Council) U/mg peptide
eel calcitonin | 2,000 to 4,000 MRC U/mg peptide
hog calcitonin: natural calcitonin of hog (porcine) (CSNLSTCVLSAYWRNLNNFHRFSGMGFGPETP; ends and bridges not checked; cysteine pairing not given here; UniProt P01259 1-32, looked up) | 100 to 200 MRC U/mg peptide
man calcitonin: natural calcitonin of man (human) | 100 to 200 MRC U/mg peptide
rat calcitonin: natural calcitonin of rat (CGNLSTCMLGTYTQDLNKFHTFPQTSIGVGAP; ends and bridges not checked; cysteine pairing not given here; UniProt P01257 85-116, looked up) | 400 MRC U/mg
